According to publication PMC8653662, “Cytotoxicity and Immunogenicity Evaluation of Synthetic Cell-penetrating Peptides for Methotrexate Delivery” (Iranian Journal of Pharmaceutical Research : IJPR, 2021):
Ends that are not written are not given here. MTX = methotrexate

Columns and labels:
Raji cells = experiment: MTT cell viability assay; format: cell-based, Human; details: for cytotoxicity of CPPs: 5, 10, 25 and 50 μM, 24, 48 and 72 h, 570 nm, mean of three independent experiments in duplicate
Procedure: Human lymphoma cell line (Raji) was cultured in 75 cm^2 cell culture flasks containing RPMI 1640 medium (Gibco), which was supplemented with 10% FBS, 2 mM L-glutamine, 100 units/mL penicillin, and 100 µg/mL streptomycin ([29]). The cell culture was carried out in a humidified atmosphere of 5% CO2, 95% air, and 37 °C. The cell viability of CPPs and peptide-MTX conjugates was determined by MTT assay in Raji cells. […] […] The cell viability was determined by measuring the amount of MTT transformed to formazan salt using an ELISA reader at 570 nm (Bioteck Instruments, Winooski, VT, USA). The results were the means of three independent experiments performed in duplicate.

[1] = Zetasizer hydrodynamic size distribution and zeta potential; format: physicochemical; details: Zetasizer Nano ZS, distilled water pH 7.4, 25 °C, repeated three times
Procedure: The size and morphology of NGRWR peptide and NGRWR-E8 nanoparticles (as representatives) were examined by scanning electron microscopy (SEM, Mira3 FEG-SEM Tescan 5.0 kV). Samples were prepared by drop-casting of a 5 mM aqueous solution (20 µL) onto the mica surface. Then, they were lyophilized, coated with gold, and analyzed with a […] of SEM. Zetasizer Nano ZS (Malvern Instruments, Worcestershire, UK) was employed to examine the mean hydrodynamic diameter, size distribution, and zeta potential of NGRWR peptide and NGRWR-E8 nanoparticles. To this end, the samples were diluted in distilled water (pH 7.4), and the experiment was repeated three times per sample at 25 °C.

IL-6 = format: cell-based, Human; details: Raji cells; LPS 10 μg/mL; 48 h; positive control
Procedure: (§1) As a positive control, cells were incubated with 10 μg/mL of lipopolysaccharide (LPS) to induce IL-6 and TNF-α release. Then, the supernatant was collected and IL-6 and TNF-α secretion was evaluated using standard ELISA kits.

TNF-α = format: cell-based, Human; details: Raji cells; LPS 10 μg/mL; 48 h; positive control
Procedure: as §1

Q: Which “cytotoxicity of CPPs” value (Raji cells) does the source give for “NGRWRWRWR [linear cell-penetrating peptide …]” here?
A: no significant cytotoxicity

Q: What about the “size distribution, population of 16% of particles” value [1] of the same substance?
A: 50 nm

Q: And the “size distribution, population of 20% of particles” value [1]?
A: 37 nm

Q: And the “size distribution, population of 21% of particles” value [1]?
A: 50-250 nm

Q: And the “size distribution, population of 43% of particles” value [1]?
A: 26 nm

Q: And the zeta potential [1]?
A: +11 mV

Q: With “RRRRRR [R6, linear polyarginine peptide RRRRRR]” as the substance, how does the “cytotoxicity of CPPs” value (Raji cells) read?
A: no significant cytotoxicity

Q: Which “cytotoxicity of CPPs” value (Raji cells) does the source give for “WKWKWKWK [[WK]4, linear cell-penetrating peptide WKWKWKWK]” here?
A: no significant cytotoxicity

Q: For WRNGRWR-MTX (WRNGRWR-{MTX}), which “cytotoxic effect of peptide-MTX conjugates” value (Raji cells; 25 nM MTX, 48 h after treatment) is on record?
A: no significant cytotoxic effect

Q: For “WRWNGRWRW [WRNGRWR, linear cell-penetrating peptide …]”, which “cytotoxicity of CPPs” value (Raji cells) is on record?
A: no significant cytotoxicity

Q: With “WRWRWRNGR [linear cell-penetrating peptide …]” as the substance, how does the “cytotoxicity of CPPs” value (Raji cells) read?
A: no significant cytotoxicity

Q: For “WRWRWRWR [[WR]4, linear cell-penetrating peptide WRWRWRWR]”, which cell viability (Raji cells; 5 μM peptide, 24 h) is on record?
A: 40%

Q: With “WWWWKKKK [W4K4, linear cell-penetrating peptide WWWWKKKK]” as the substance, how does the “cytotoxicity of CPPs” value (Raji cells) read?
A: no significant cytotoxicity

Q: For “WWWWRRRR [W4R4, linear cell-penetrating peptide WWWWRRRR]”, which “cytotoxicity of CPPs” value (Raji cells) is on record?
A: no significant cytotoxicity

Q: With lipopolysaccharide [LPS] as the substance, how does the “IL-6 level enhancement over the control group” value (IL-6) read?
A: 100 times

Q: And the “TNF-α level enhancement over the control group” value (TNF-α)?
A: 100 times
